From ChEMBL document CHEMBL4739717, “Methods of treating cartilage disorders through inhibition of clk and dyrk” (2020) come the findings set out here.

Molecules are shown by their SMILES.

Assay [1] can be described thus: Effect on Wnt signaling pathway in human SW480 cells harbouring TCF/LEF luciferase reporter gene and SP5-Luc reporter gene incubated for 36 to 48 hrs by luminescence assay. Format: cell-based.
The nature of assay [2]: Inhibition of IL1-beta induced MMP3 expression levels in human chondrocytes assessed as MMP3 levels incubated for 2hrs followed by IL1-beta stimulation and measured after overnight incubation by LANCE assay. The format is functional, cell-based. The note with it: Chondrocyte.

On to `CN1CCN(c2cc(C(=O)Nc3ncc4ccc(-c5cnn(C)c5)cc4n3)ccn2)CC1`, for which the EC50 is 468 nM in assay [1] and 417 nM in assay [2].

`O=C(Nc1ccc(CN2CCCC2)cc1)c1n[nH]c2ccc(-c3cncnc3)cc12`: the values for the concentration for a half-maximal effect (EC50) in assay [1] and in assay [2] were 1310 nM and 307 nM, respectively.

Turning to `CN1CCC(n2cc(C(=O)Nc3ncc4ccc(-c5cncc6[nH]ccc56)cc4n3)cn2)CC1`, the results for the EC50 in assay [1] and in assay [2] were 1400 nM and 3000 nM, respectively.

Turning to `O=C(Nc1cc2cc(-c3cncc(NC4CCNCC4)n3)ccc2cn1)C1CCCCC1`, the EC50 in assay [1] was determined as 319 nM; in assay [2], 3000 nM.

`CC(C)n1cc(C(=O)Nc2cc3cc(-c4cncn4C(C)C)ccc3cn2)cn1`: the half-maximal effective concentration (EC50) in assay [1] amounted to 115 nM; in assay [2], 4.6 nM.

On to `Cc1ncc(C(=O)Nc2cc3nc(-c4cnc(C)n4C)ccc3cn2)s1`, for which the values for the EC50 in assay [1] and in assay [2] were 107 nM and 8.7 nM, respectively.

As for `O=C(NCc1cc(F)cc(F)c1)c1n[nH]c2ccc(-c3cncc(CN4CCCCC4)c3)cc12`, the EC50 in assay [1] is 1820 nM; in assay [2], 3000 nM.

With `CN1CCC2(CC1)CN(c1cc(C(=O)Nc3cc4cc(-c5cnn(C)c5)ccc4cn3)ccn1)C2`, the concentration for a half-maximal effect (EC50) in assay [2] was found to be 3000 nM.

With `CN1CCN(c2cc(C(=O)Nc3cc4cc(-c5ccc(N)nc5)ccc4cn3)ccn2)CC1`, the half-maximal effective concentration (EC50) amounted to 710 nM in assay [1] and 798 nM in assay [2].

With `CC(C)OC(=O)N1CCC(n2cc(C(=O)Nc3cc4cc(-c5cnn(C)c5)ccc4cn3)cn2)CC1`, the 50% effective concentration (EC50) is 54.5 nM in assay [1] and 88.1 nM in assay [2].

Regarding `CN(C)CCNc1cc(C(=O)Nc2cc3cc(-c4cnn(C)c4)ccc3cn2)ccn1`, the 50% effective concentration (EC50) in assay [2] stood at 306 nM.

As for `CC(C)OC(=O)N1CCC(n2cc(C(=O)Nc3cc4cc(-c5cnn(C)c5)ncc4cn3)cn2)CC1`, the values for the EC50 in assay [1] and in assay [2] were 824 nM and 154 nM, respectively.

Consider `Cc1cc(C(=O)Nc2cc3cc(-c4cnn(C)c4)ccc3cn2)cc(N2CCN(C)CC2)n1`, for which, in assay [2], the EC50 was determined as 3000 nM.

For the molecule `CN1CCN(c2cc(C(=O)Nc3cc4c(Cl)c(-c5cnn(C)c5)ccc4cn3)ccn2)CC1`, the concentration giving a half-maximal response (EC50) in assay [2] was 898 nM.

Regarding `CN1CCN(c2ccc(C(=O)Nc3cc4cc(-c5cnn(C)c5)ccc4cn3)cn2)CC1`, the EC50 in assay [2] was determined as 9.5 nM.

With `Cc1n[nH]c2ccc(-c3cncc(OCCN)c3)cc12`, the concentration for a half-maximal effect (EC50) in assay [1] came out at 1640 nM; in assay [2], 3000 nM.

As to `CN(C)C1CCN(c2cc(C(=O)Nc3cc4cc(-c5cnn(C)c5)ccc4cn3)ccn2)CC1`, the EC50 in assay [2] came out at 697 nM.

Take `Cn1cc(-c2ccc3cnc(NC(=O)c4ccc5nccnc5c4)cc3n2)cn1`: the EC50 in assay [1] came out at 447 nM; in assay [2], 3000 nM.

Regarding `CN1CCN(c2cc(C(=O)Nc3cc4nc(-c5cnn(C)c5)ccc4cn3)ccn2)CC1`, the EC50 in assay [1] worked out at 102 nM; in assay [2], 3000 nM.

On to `CN1CCc2cc(C(=O)Nc3cc4cc(-c5cn(C)nn5)ccc4cn3)ccc2C1`, for which the EC50 in assay [2] turned out to be 3000 nM.

In the case of `Cn1cncc1-c1ccc2cnc(NC(=O)c3ccnc(N4CCN(C5CC5)CC4)c3)cc2c1`, the EC50 in assay [2] amounted to 3000 nM.

In the case of `Cc1n[nH]c2ccc(-c3cncc(OC[C@@H](N)Cc4ccccc4)c3)cc12`, the EC50 in assay [1] stood at 262 nM; in assay [2] it was 3000 nM.

As for `CN1CCC2(CC1)CN(c1cc(C(=O)Nc3cc4cc(-c5cnn(C)c5CN5CCCCC5)cnc4cn3)ccn1)C2`, the EC50 in assay [1] is 607 nM; in assay [2] it was 3000 nM.

Take `Cn1cc(-c2ccc3cnc(NC(=O)c4ccc5cnccc5c4)cc3c2)cn1`: the EC50 in assay [2] was 3000 nM.

As to `CN1CCN(c2cc(C(=O)Nc3cc4cc(-c5cnc(N)s5)ccc4cn3)ccn2)CC1`, the EC50 in assay [2] came out at 0.4 nM.

Take `CN1CCN(c2cc(C(=O)Nc3cc4cc(-c5cnn(C6CC6)c5)ccc4cn3)ccn2)CC1`: the EC50 in assay [2] worked out at 12.2 nM.

As for `CN1CCN(c2cc(C(=O)Nc3cc4cc(-c5cnn(C)c5)c(F)cc4cn3)ccn2)CC1`, the EC50 in assay [2] was 0.4 nM.

Take `CN(C)Cc1ccc(C(=O)Nc2cc3cc(-c4cnn(C)c4)ccc3cn2)cc1`: the half-maximal effective concentration (EC50) in assay [2] came out at 47.4 nM.

On to `NC1CN(c2cc(C(=O)Nc3cc4cc(-c5cnco5)ccc4cn3)ccn2)C1`, for which the EC50 in assay [2] was 3000 nM.

As to `Cn1cc(-c2ccc3cnc(NC(=O)c4ccc5c(c4)CNCC5)cc3c2)cn1`, in assay [2], the EC50 turned out to be 1630 nM.
